Like-named read-outs stand apart in the source and are kept apart here.
Assays:
[1] = target: BTK enzyme (recombinant full-length BTK, hBTK) (Homo sapiens (Human), UniProt Q06187); experiment: BTK enzymatic activity LANCE TR-FRET assay; assay type: biochemical; settings: 50 pM hBTK, 25 μM ATP, 2 μM biotin-A5-peptide; compound range 1 μM to 0.017 nM; read-out: BTK binding IC50
[2] = test system: adenosine uptake into HeLa cells; experiment: [3H]Adenosine uptake assay in HeLa cells; assay type: cell-based; settings: [3H]adenosine accumulation in HeLa cells, compound range 10 μM to 0.032 nM, read-out: ADU inhibition IC50
Summary of the method: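 HeLa cells in HBSS + 5% FBS were preincubated 30 min at ambient temperature with compound (ten-point 1:3 series, 10 µM–[…] final), then given [3H]adenosine (added as a 500 nM solution) for 60 min. Cell-associated label was read by scintillating-plate proximity counting; IC50 from 4-parameter fit of cps versus log concentration.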

Sequence of BTK enzyme (recombinant full-length BTK, hBTK) (Q06187 whole entry): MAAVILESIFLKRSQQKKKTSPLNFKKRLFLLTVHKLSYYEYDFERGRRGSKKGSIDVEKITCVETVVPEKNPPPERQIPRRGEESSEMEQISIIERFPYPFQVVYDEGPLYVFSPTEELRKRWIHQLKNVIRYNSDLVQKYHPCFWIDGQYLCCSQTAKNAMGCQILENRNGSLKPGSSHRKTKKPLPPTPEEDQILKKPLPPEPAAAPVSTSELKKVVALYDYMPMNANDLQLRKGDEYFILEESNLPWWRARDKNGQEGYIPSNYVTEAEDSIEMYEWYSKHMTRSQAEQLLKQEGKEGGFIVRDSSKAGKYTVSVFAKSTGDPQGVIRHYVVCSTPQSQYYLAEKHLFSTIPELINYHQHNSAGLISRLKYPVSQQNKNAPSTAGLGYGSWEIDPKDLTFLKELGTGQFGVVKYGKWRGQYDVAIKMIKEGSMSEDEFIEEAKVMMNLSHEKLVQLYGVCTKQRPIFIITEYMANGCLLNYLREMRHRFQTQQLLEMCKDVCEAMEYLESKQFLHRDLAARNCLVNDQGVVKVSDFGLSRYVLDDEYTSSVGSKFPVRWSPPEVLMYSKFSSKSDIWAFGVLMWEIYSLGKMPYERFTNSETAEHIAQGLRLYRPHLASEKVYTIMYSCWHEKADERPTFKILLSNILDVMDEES

Compound: Nc1nccn2c([C@@H]3CC[C@H]4CCC(=O)N4C3)nc(-c3ccc(C(O)(c4cccc(C(F)(F)F)c4)C(F)F)cc3)c12 (stereo partly drawn) [Example 112, (6R,8aS)-6-[8-amino-1-(4-{2,2-difluoro-1-hydroxy-1-[3-(trifluoromethyl)phenyl]ethyl}phenyl)imidazo [1,5-a]pyrazin-3-yl]hexahydroindolizin-3(2H)-one]
- IC50 [1]: 0.0056 µM
- IC50 [2]: 1.87 µM

Compound: C[C@](O)(c1ccc(-c2nc([C@@H]3CC[C@H]4CCC(=O)N4C3)n3ccnc(N)c23)cc1)c1ccc(C(F)(F)F)s1 [Example 113, (6R,8aS)-6-[8-amino-1-(4-{(1S)-1-hydroxy-1-[5-(trifluoromethyl)thiophen-2-yl]ethyl}phenyl)imidazo [1,5-a]pyrazin-3-yl]hexahydroindolizin-3(2H)-one]
- IC50 [1]: 0.0309 µM
- IC50 [2]: 2.14 µM

Compound: CN1CC[C@@H]2CC[C@@H](c3nc(-c4ccc([C@@](C)(O)c5cccc(C(F)(F)F)c5)cc4)c4c(N)nccn34)CN2C1=O [Example 114, (4aS,7R)-7-[8-amino-1-(4-{(1R)-1-hydroxy-1-[3-(trifluoromethyl)phenyl]ethyl}phenyl)imidazo [1,5-a]pyrazin-3-yl]-2-methyloctahydro-1H-pyrido[1,2-c]pyrimidin-1-one]
- IC50 [1]: 0.00022 µM
- IC50 ([2]; Homo sapiens, HeLa): 0.888 µM

Compound: CN1CC[C@@H]2CC[C@@H](c3nc(-c4ccc([C@](C)(O)c5cccc(C(F)(F)F)c5)cc4)c4c(N)nccn34)CN2C1=O [Example 115, (4aS,7R)-7-[8-amino-1-(4-{(1S)-1-hydroxy-1-[3-(trifluoromethyl)phenyl]ethyl}phenyl)imidazo [1,5-a]pyrazin-3-yl]-2-methyloctahydro-1H-pyrido[1,2-c]pyrimidin-1-one]
- IC50 [1]: 0.0519 µM
- IC50 ([2]; Homo sapiens, HeLa): 0.172 µM

Compound: C[C@](O)(c1ccc(-c2nc([C@@H]3CC[C@H]4CCC(=O)N4C3)n3c(Cl)cnc(N)c23)cc1)c1cccc(C2CC2)c1 [Example 116, (6R,8aS)-6-(8-amino-5-chloro-1-{4-[(1S)-1-(3-cyclopropylphenyl)-1-hydroxyethyl]phenyl}imidazo[1,5-a]pyrazin-3-yl)hexahydroindolizin-3(2H)-one]
- IC50 [1]: 0.00087 µM
- IC50 ([2]; Homo sapiens, HeLa): 0.458 µM

Compound: C[C@@](O)(c1ccc(-c2nc([C@@H]3CC[C@H]4CCC(=O)N4C3)n3c(Cl)cnc(N)c23)cc1)c1cccc(C2CC2)c1 [Example 117, (6R,8aS)-6-(8-amino-5-chloro-1-{4-[(1R)-1-(3-cyclopropylphenyl)-1-hydroxyethyl]phenyl}imidazo[1,5-a]pyrazin-3-yl)hexahydroindolizin-3(2H)-one]
- IC50 [1]: 0.00012 µM
- IC50 ([2]; Homo sapiens, HeLa): 0.956 µM

Compound: CN1CC[C@H]2CC[C@H](c3nc(-c4ccc([C@@](C)(O)c5cccc(C(F)(F)F)c5)cc4)c4c(N)nccn34)CN2C1=O [Example 118, (4aR,7S)-7-[8-amino-1-(4-{(1R)-1-hydroxy-1-[3-(trifluoromethyl)phenyl]ethyl}phenyl)imidazo [1,5-a]pyrazin-3-yl]-2-methyloctahydro-1H-pyridol[1,2-c]pyrimidin-1-one]
- IC50 [1]: 0.0832 µM
- IC50 ([2]; Homo sapiens, HeLa): 1.49 µM

Compound: CC(C)N1CC(=O)N2C[C@H](c3nc(-c4ccc([C@@](C)(O)c5cccc(C(F)(F)F)c5)cc4)c4c(N)nccn34)CC[C@H]2C1 [Example 119, (7R,9aS)-7-(8-amino-1-(4-{(1R)-1-hydroxy-1-[3-(trifluoromethyl)phenyl]ethyl}phenyl)imidazo [1,5-a]pyrazin-3-yl]-2-(1-methylethyl)octahydro-4H-pyrido[1,2-a]pyrazin-4-one]
- IC50 [1]: 0.0331 µM
- IC50 ([2]; Homo sapiens, HeLa): 2.41 µM

Compound: CC(C)N1CC(=O)N2C[C@@H](c3nc(-c4ccc([C@@](C)(O)c5cccc(C(F)(F)F)c5)cc4)c4c(N)nccn34)CC[C@@H]2C1 [Example 120, (7S,9aR)-7-[8-amino-1-(4-{(1R)-1-hydroxy-1-[3-(trifluoromethyl)phenyl]ethyl}phenyl)imidazo [1,5-a]pyrazin-3-yl]-2-(1-methylethyl)octahydro-4H-pyrido[1,2-a]pyrazin-4-one]
- IC50 [1]: 0.0051 µM
- IC50 ([2]; Homo sapiens, HeLa): 4.67 µM

Compound: C[C@@](O)(c1ccc(-c2nc([C@@H]3CC[C@H]4CCC(=O)N4C3)n3c(Cl)cnc(N)c23)cc1)c1cccc(CC(F)(F)F)c1 [Example 121, (6R,8aS)-6-[8-amino-5-chloro-1-(4-{(1R)-1-hydroxy-1-[3-(2,2,2-trifluoroethyl)phenyl]ethyl}phenyl)imidazo[1,5-a]pyrazin-3-yl]hexahydroindolizin-3(2H)-one]
- IC50 [1]: 0.00018 µM
- IC50 ([2]; Homo sapiens, HeLa): 1.94 µM

Compound: C[C@](O)(c1ccc(-c2nc([C@@H]3CC[C@H]4CCC(=O)N4C3)n3c(Cl)cnc(N)c23)cc1)c1cccc(CC(F)(F)F)c1 [Example 122, (6R,8aS)-6-[8-amino-5-chloro-1-(4-{(1S)-1-hydroxy-1-(3-(2,2,2-trifluoroethyl)phenyl]ethyl}phenyl)imidazo[1,5-a]pyrazin-3-yl]hexahydroindolizin-3(2H)-one]
- IC50 [1]: 0.0027 µM
- IC50 ([2]; Homo sapiens, HeLa): 0.967 µM

Compound: CC(C)(c1cccc([C@@](C)(O)c2ccc(-c3nc([C@@H]4CC[C@H]5CCC(=O)N5C4)n4c(Cl)cnc(N)c34)cc2)c1)C(F)(F)F [Example 123, (6R,8aS)-6-[8-amino-5-chloro-1-(4-{(1S)-1-hydroxy-1-[3-(2,2,2-trifluoro-1,1-dimethylethyl)phenyl]ethyl}phenyl)imidazo[1,5-a]pyrazin-3-yl]hexahydroindolizin-3(2H)-one]
- IC50 [1]: 0.117 µM
- IC50 ([2]; Homo sapiens, HeLa): 0.945 µM

Compound: CC(C)(c1cccc([C@](C)(O)c2ccc(-c3nc([C@@H]4CC[C@H]5CCC(=O)N5C4)n4c(Cl)cnc(N)c34)cc2)c1)C(F)(F)F [Example 124, (6R,8aS)-6-[8-amino-5-chloro-1-(4-{(1R)-1-hydroxy-1-[3-(2,2,2-trifluoro-1,1-dimethylethyl)phenyl]ethyl}phenyl)imidazo[1,5-a]pyrazin-3-yl]hexahydroindolizin-3(2H)-one]
- IC50 [1]: 0.0012 µM
- IC50 ([2]; Homo sapiens, HeLa): 1.45 µM

Compound: Nc1nccn2c([C@@H]3CC[C@H]4CCC(=O)N4C3)nc(-c3ccc(C(O)c4cc(C(F)(F)F)ccc4F)cc3)c12 (stereo partly drawn) [Example 125, (6R,8aS)-6-(8-amino-1-(4-{[2-fluoro-5-(trifluoromethyl)phenyl] (hydroxy)methyl}phenyl)imidazo[1,5-a]pyrazin-3-yl]hexahydroindolizin-3(2H)-one]
- IC50 [1]: 0.824 µM
- IC50 ([2]; Homo sapiens, HeLa): 1.18 µM

Compound: Nc1ncc(Cl)n2c([C@@H]3CC[C@H]4CCC(=O)N4C3)nc(-c3ccc(C(O)c4cc(C(F)(F)F)ccc4F)cc3)c12 (stereo partly shown) [Example 126]
- IC50 [1]: 1 µM
- IC50 ([2]; Homo sapiens, HeLa): 1.07 µM

Compound: Cc1ccc(C(F)(F)F)cc1C(O)c1ccc(-c2nc([C@@H]3CC[C@H]4CCC(=O)N4C3)n3ccnc(N)c23)cc1 (stereo partly drawn) [Example 127, (6R,8aS)-6-[8-amino-1-(4-{hydroxy[2-methyl-5-(trifluoromethyl)phenyl]methyl}phenyl)imidazo [1,5-a]pyrazin-3-yl]hexahydroindolizin-3(2H)-one]
- IC50 [1]: 0.459 µM
- IC50 ([2]; Homo sapiens, HeLa): 2.14 µM

Compound: Nc1nccn2c([C@@H]3CC[C@H]4CCC(=O)N4C3)nc(-c3ccc(C(O)c4cc(C(F)(F)F)ccc4F)cc3)c12 (stereo partly shown) [Example 128]
- IC50 [1]: 0.0124 µM
- IC50 [2]: 1.47 µM

Compound: Nc1ncc(Cl)n2c([C@@H]3CC[C@H]4CCC(=O)N4C3)nc(-c3ccc(C(O)c4cc(C(F)(F)F)ccc4F)cc3)c12 (stereo partly drawn) [Example 129, (6R,8aS)-6-[8-amino-5-chloro-1-(4-{[2-fluoro-5-(trifluoromethyl)phenyl] (hydroxy)methyl}phenyl)imidazo[1,5-a]pyrazin-3-yl]hexahydroindolizin-3(2H)-one]
- IC50 [1]: 0.0122 µM
- IC50 [2]: 1.66 µM

Compound: Cc1ccc(C(F)(F)F)cc1C(O)c1ccc(-c2nc([C@@H]3CC[C@H]4CCC(=O)N4C3)n3ccnc(N)c23)cc1 (stereo partly drawn) [Example 130, (6R,8aS)-6-[8-amino-1-(4-{hydroxy[2-methyl-5-(trifluoromethyl)phenyl]methyl}phenyl)imidazo [1,5-a]pyrazin-3-yl]hexahydroindolizin-3(2H)-one]
- IC50 [1]: 0.0127 µM
- IC50 [2]: 1.44 µM

Compound: CC(F)(F)c1cccc([C@@](C)(O)c2ccc(-c3nc([C@@H]4CC[C@H]5CCC(=O)N5C4)n4ccnc(N)c34)cc2)c1 [Example 131, (6R,8aS)-6-[8-amino-1-(4-{(1S)-1-[3-(1,1-difluoroethyl)phenyl]-1-hydroxyethyl}phenyl)imidazo[1,5-a]pyrazin-3-yl]hexahydroindolizin-3(2H)-one]
- IC50 [1]: 0.0644 µM
- IC50 ([2]; Homo sapiens, HeLa): 0.436 µM

Compound: CC(F)(F)c1cccc([C@](C)(O)c2ccc(-c3nc([C@@H]4CC[C@H]5CCC(=O)N5C4)n4ccnc(N)c34)cc2)c1 [Example 132, (6R,8aS)-6-[8-amino-1-(4-{(1R)-1-[3-(1,1-difluoroethyl)phenyl]-1-hydroxyethyl}phenyl)imidazo[1,5-a]pyrazin-3-yl]hexahydroindolizin-3(2H)-one]
- IC50 [1]: 0.0003 µM
- IC50 ([2]; Homo sapiens, HeLa): 2.95 µM

Compound: C[C@](O)(c1ccc(-c2nc([C@@H]3CC[C@H]4CCC(=O)N4C3)n3c(Cl)cnc(N)c23)cc1)c1cccc(C(F)F)c1 [Example 133, (6R,8aS)-6-[8-amino-5-chloro-1-(4-{(1S)-1-[3-(difluoromethyl)phenyl]-1-hydroxyethyl}phenyl)imidazo[1,5-a]pyrazin-3-yl]hexahydroindolizin-3(2H)-one]
- IC50 [1]: 0.118 µM
- IC50 ([2]; Homo sapiens, HeLa): 0.46 µM

Compound: C[C@@](O)(c1ccc(-c2nc([C@@H]3CC[C@H]4CCC(=O)N4C3)n3c(Cl)cnc(N)c23)cc1)c1cccc(C(F)F)c1 [Example 134, (6R,8aS)-6-[8-amino-5-chloro-1-(4-{(1R)-1-[3-(difluoromethyl)phenyl]-1-hydroxyethyl}phenyl)imidazo[1,5-a]|pyrazin-3-yl]hexahydroindolizin-3(2H)-one]
- IC50 [1]: 0.00014 µM
- IC50 ([2]; Homo sapiens, HeLa): 2.33 µM

Source: US10214546B2, “Btk inhibitors” (MERCK SHARP & DOHME CORP., priority 2014, dated 2019)
